The results in this text go back to patent US8703953B2, “Aryl ether-base kinase inhibitors” (Bristol-Myers Squibb Company, priority 2012, dated 2014).

One assay addresses T1, GST-Xa-hAAK1 (Homo sapiens, UniProt Q2M2I8).
T1 construct: made in house
The experiment in a line: AAK1 Kinase Assay (Caliper LabChip, fluoresceinated peptide substrate). The class given is biochemical. The following applies: ATP 22 μM. As to the method: The assays were performed in U-bottom 384-well plates. The final assay volume was 30 μl prepared from 15 μl additions of enzyme and substrates (fluoresceinated peptide (5-FAM)-Aha-[…]-NH2 and ATP) and test compounds in assay buffer (10 mM Tris-HCL pH 7.4, 10 mM MgCl2, 0.01% Tween-20 and 1.0 mM DTT). The reactions were initiated by the combination of bacterially expressed, GST-Xa-hAAK1 with substrates and test compounds. The reactions were incubated at room temperature for 3 hours and terminated by adding 60 μl of 35 mM EDTA buffer to each sample. The reactions were analyzed on the Caliper LabChip 3000 (Caliper, Hopkinton, Mass.) by electrophoretic separation of the fluorescent substrate and phosphorylated product. […] The final concentration of reagents in the assays are ATP, 22 μM; (5-FAM)-Aha-[…]-NH2, 1.5 μM; GST-Xa-hAAK1, 3.5 nM; and DMSO, 1.6%. Dose response curves were generated to determine the concentration required inhibiting 50% of kinase activity (IC50). Compounds were dissolved at 10 mM in dimethylsulfoxide (DMSO) and evaluated at eleven concentrations. IC50 values were derived by non-linear regression analysis.

A further assay deals with T2, AAK1 (full length human) (Homo sapiens, UniProt Q2M2I8).
T2 construct: HA; expressed in transfected cells; host or cells: HEK293F
Put plainly: HEK281 Cell-Based Assay (HEK293F cells transfected with AAK1 and AP2M1; phospho-mu2 Western blot). The following applies: 3 h. As to the method:
HEK293F cells were cultured in media containing DMEM (Gibco, cat. #11965), 10% FBS (SAFC Biosciences, cat. #12103C), 1× GPS (glutamine, penicillin and streptomycin). On day one, cells were plated on a 10 cm dish so that they are ˜80% confluent at time of transfection. Roughly 12 million cells were in a 10 cm dish at time of transfection. On day two, each dish was transfected with 48 ug DNA and 144 μl Lipofectamine 2000 (Invitrogen, cat. #11668-019). The DNA was comprised of a mixture (per 10 cm dish) containing 3 ug AAK1/HA/pIRES (full length human, NCBI accession no. NP_055726.2), 45 μg Flag/AP2MI/pcDNA (full length human), and 1.5 ml OPTI-MEM. The Lipofectamine 2000 is made up of a mixture (per 10 cm dish) containing 144 μl Lipofectamine 2000 and 1.5 ml OPTI-MEM. Each mixture was transferred to individual 15 ml tubes and incubated at RT for 5 minutes, and then the two mixes were combined and incubated at RT for 20 minutes. Growth media was then aspirated from each 10 cm plate and replaced with 10 ml of DMEM+10% FBS (no GPS). Finally, 3 ml DNA/Lipofectamine mix was added to each 10 cm dish and mix gently followed by incubate of plate overnight at 37° C. and 5% CO2.
On day three, compounds were diluted in 100% DMSO at 1000× final concentration, followed by 3-fold serial dilutions for a total of 5 concentrations tested. Four compounds were tested per 10 cm dish. One ul of each compound dilution was then pipetted into a deep-well, 96-well plate, followed by addition of 500 μl DMEM+0.5% FBS into each well for a 2× final concentration of each compound. Cells were resuspended in a 10 cm dish by simple pipetting (HEK293 cells come off the plate that easy at this point) and then transferred to a 50 ml conical tube and pelleted by centrifugation at 1000 rpm for 5 min. Cell pellets were then resuspended in 2.75 ml DMEM+0.5% FBS per 10 cm dish and 100 μl of cell suspension transferred into each well of 96-well TC plate. Finally, 100 μl of 2× compound diluted in DMEM+0.5% FBS was then added into wells containing cell suspension for a 1× final concentration. Plates were then incubated at 37° C. and 5% CO2 for 3 hours followed by transferring of cell suspensions from each well into 12-tube PCR strips. The PCR strips were spun in a tip rack at 1000 rpm for 5 minutes to pellet cells and media was then removed by pipetting without disturbing the cell pellet.
To prepare for Western Blot analysis, cell pellets were resuspend in 40 ul 1× LDS-PAGE sample buffer (Invitrogen, cat. #NP0008)+2× Halt phophatase and protease inhibitor cocktail (Thermo Scientific, cat. #1861284), followed by sonicating each with microtip sonicator set at 5 for 8-10 seconds. Five ul of 10× NuPage Sample Reducing Agent (with […]) was to each sample followed by heat denaturing at 70C for 10 min on PCR machine. A total of 10 μl per sample was loaded into each lane of a 4-20% Tris-Glycine Criterion 26-well gel (Biorad, cat. #345-0034) for the phospho-mu2 blot and 10 μl per lane in a 4-12% Bis-Tris (+MES buffer) NuPAGE 26-well gel (Invitrogen, cat. #WG1403BX10) for the mu2 blot. For controls, 2 ng of phospho-mu2 or 20 ng mu2/Flag proteins were loaded in the last well of each gel. After SDS-PAGE, samples on each gel were transferred to PVDF membrane using an iBlot and membranes were blocked for one hour in TBST+5% milk, followed by wash 3× for 5-10 min with TBST. Criterion gels were probed with rabbit anti-phospho-mu2 (1:5000; a rabbit polyclonal antibody produced by New England Peptide and affinity purified at Lexicon) in TBST+5% BSA, whereas, NuPAGE gels were probed with mouse anti-Flag (1:500; Sigma, cat. #F1804) in TBST+5% milk, and these primary antibodies were incubated overnight at 4° C. on a rocker. […]

T1 sequence (Q2M2I8 whole entry): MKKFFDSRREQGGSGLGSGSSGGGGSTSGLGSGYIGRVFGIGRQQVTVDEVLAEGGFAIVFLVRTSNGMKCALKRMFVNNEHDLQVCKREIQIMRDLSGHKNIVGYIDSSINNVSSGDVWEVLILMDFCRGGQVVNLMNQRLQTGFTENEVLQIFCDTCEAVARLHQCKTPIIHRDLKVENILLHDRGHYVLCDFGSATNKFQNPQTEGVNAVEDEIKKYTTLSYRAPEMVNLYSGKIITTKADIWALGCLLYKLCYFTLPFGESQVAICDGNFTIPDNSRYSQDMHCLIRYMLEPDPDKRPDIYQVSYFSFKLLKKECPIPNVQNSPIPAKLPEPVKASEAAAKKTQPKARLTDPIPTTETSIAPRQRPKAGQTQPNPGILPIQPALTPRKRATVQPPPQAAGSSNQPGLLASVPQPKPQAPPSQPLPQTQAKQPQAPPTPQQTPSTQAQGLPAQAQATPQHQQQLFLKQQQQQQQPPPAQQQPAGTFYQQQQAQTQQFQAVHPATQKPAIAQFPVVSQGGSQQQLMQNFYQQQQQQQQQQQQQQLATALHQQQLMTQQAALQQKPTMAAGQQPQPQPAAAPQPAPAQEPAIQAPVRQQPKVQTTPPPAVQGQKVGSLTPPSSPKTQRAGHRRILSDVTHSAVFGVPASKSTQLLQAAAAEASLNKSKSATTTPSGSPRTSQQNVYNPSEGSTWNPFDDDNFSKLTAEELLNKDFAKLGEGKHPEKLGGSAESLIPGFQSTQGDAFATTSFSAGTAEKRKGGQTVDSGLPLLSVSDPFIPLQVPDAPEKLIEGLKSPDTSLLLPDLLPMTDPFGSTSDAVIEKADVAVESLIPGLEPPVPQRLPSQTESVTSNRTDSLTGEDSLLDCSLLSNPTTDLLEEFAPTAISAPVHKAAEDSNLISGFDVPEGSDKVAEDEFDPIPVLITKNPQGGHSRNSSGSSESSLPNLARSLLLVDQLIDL
T2 sequence (Q2M2I8 whole entry): as above

By IC50 is commonly meant the concentration that inhibits the measured activity by half. With `CC(=O)Nc1cc2c(cn1)COc1c-2ccc(OC[C@@H](N)CC(C)C)c1F` [Example 41, (S)-N-(8-((2-amino-4-methylpentyl)oxy)-7-fluoro-5H-chromeno[3,4-c]pyridin-2-yl)acetamide], the half-inhibitory concentration (IC50) came to 0.3 nM on GST-Xa-hAAK1 (numeric values) and 2.1 nM against AAK1 (full length human) (numeric values).
Consider `CC(C)C[C@H](N)COc1cc2c(cc1Br)-c1ccncc1C(C(F)(F)F)O2` (mixture of isomers) [Example 28, (2S)-1-((9-bromo-5-(trifluoromethyl)-5H-chromeno[3,4-c]pyridin-8-yl)oxy)-4-methylpentan-2-amine], for which the IC50 on GST-Xa-hAAK1 (listed as IC50 ranges) and at AAK1 (full length human) (listed as IC50 ranges) was 1 to 10 nM in each case.
With `CC(=O)Nc1cc2c(cn1)COc1cc(OCC(C)(N)CC(C)C)ccc1-2` (racemic) [Example 44, N-(8-(2-amino-2,4-dimethylpentyloxy)-5H-chromeno[3,4-c]pyridin-2-yl)acetamide], the IC50 on GST-Xa-hAAK1 (listed as IC50 ranges) was in the range of 1 to 10 nM; against AAK1 (full length human) (listed as IC50 ranges), 10 to 100 nM.
On to `CC(C)C[C@H](N)COc1ccc2c(c1)OC(CO)(CCl)c1cnccc1-2` (stereo partly drawn) [Example 20, (8-(((S)-2-amino-4-methylpentyl)oxy)-5-(chloromethyl)-5H-chromeno[3,4-c]pyridin-5-yl)methanol], for which, on GST-Xa-hAAK1 (listed as IC50 ranges), the concentration for half-maximal inhibition (IC50) fell in the range of 10 to 100 nM.
For `CC(C)C[C@H](N)COc1cc2c(cc1Br)-c1ccncc1C(C)O2` (mixture of isomers) [Example 21, (2S)-1-(9-bromo-5-methyl-5H-chromeno[3,4-c]pyridin-8-yloxy)-4-methylpentan-2-amine], the IC50 at GST-Xa-hAAK1 (listed as IC50 ranges) was 1 to 10 nM; against AAK1 (full length human) (listed as IC50 ranges) it was less than 1 nM.
For `CC(C)C[C@H](N)COc1ccc2c(c1)OCc1cnc(NC(=O)C3CC3)cc1-2` [Example 42, (S)-N-(8-(2-amino-4-methylpentyloxy)-5H-chromeno[3,4-c]pyridin-2-yl)cyclopropanecarboxamide], the IC50 stood at 0.5 nM on GST-Xa-hAAK1 (numeric values) and 2.1 nM against AAK1 (full length human) (numeric values).
For the compound `CC(C)C[C@H](N)COc1ccc2c(c1)oc(=O)c1cnccc12` [Example 11, (S)-8-(2-amino-4-methylpentyloxy)-5H-chromeno[3,4-c]pyridin-5-one], the IC50 was 22 nM at GST-Xa-hAAK1 (numeric values) and 38 nM against AAK1 (full length human) (numeric values).
Turning to `CC(=O)Nc1cc2c(cn1)COc1c-2ccc(OC[C@@H](N)CC(C)C)c1C(F)F` [Example 38, (S)-N-(8-(2-amino-4-methylpentyloxy)-7-(difluoromethyl)-5H-chromeno[3,4-c]pyridin-2-yl)acetamide], the IC50 on GST-Xa-hAAK1 (listed as IC50 ranges) is less than 1 nM; at AAK1 (full length human) (listed as IC50 ranges), 1 to 10 nM.
For `CC(C)C[C@@H](N)COc1ccc2c(c1)OC(C1CC1)c1cnccc1-2` (stereo partly shown) [Example 9], at GST-Xa-hAAK1 (listed as IC50 ranges), the IC50 fell in the range of 100 to 1000 nM.
On to `Cc1cc2c(cn1)COc1cc(OC[C@@H](N)CC(C)C)ccc1-2` [Example 39, (S)-4-methyl-1-((2-methyl-5H-chromeno[3,4-c]pyridin-8-yl)oxy)pentan-2-amine], for which the IC50 on GST-Xa-hAAK1 (listed as IC50 ranges) is 100 to 1000 nM.
In the case of `CC(C)C[C@H](N)COc1cc2c(cc1I)-c1ccncc1C(C)O2` (single isomer, unassigned) [Example 31a], the 50% inhibitory concentration (IC50) at GST-Xa-hAAK1 (listed as IC50 ranges) was 1 to 10 nM.
The same measure, in the same setting: the figure for `N[C@@H](COc1ccc2c(c1)OCc1cnccc1-2)Cc1ccccc1` [Example 2, (R)-1-(5H-chromeno[3,4-c]pyridin-8-yloxy)-3-phenylpropan-2-amine] is 100 to 1000 nM; for `CC[C@@H](N)COc1ccc2c(c1)OCc1cnccc1-2` [Example 3, (R)-1-(5H-chromeno[3,4-c]pyridin-8-yloxy)butan-2-amine] it is 100 to 1000 nM; for `CC(C)C[C@@H](N)COc1ccc2c(c1)OC(C)c1cnccc1-2` (single isomer, unassigned) [Example 7b] it is 10 to 100 nM.
Take `CC(C)C[C@@H](N)COc1ccc2c(c1)OC(C1CC1)c1cnccc1-2` (single isomer, unassigned) [Example 9b]: the 50% inhibitory concentration (IC50) on AAK1 (full length human) (numeric values) is more than 300 nM.
For `CC(C)C[C@H](N)COc1cc2c(cc1C#N)-c1ccncc1CO2` [Example 23, (S)-8-(2-amino-4-methylpentyloxy)-5H-chromeno[3,4-c]pyridine-9-carbonitrile], the IC50 at GST-Xa-hAAK1 (listed as IC50 ranges) is 1 to 10 nM.
On to `CC(C)C[C@H](N)COc1ccc2c(c1)OC(C1CC1)c1cnccc1-2` (single isomer, unassigned) [Example 8a], for which the IC50 at GST-Xa-hAAK1 (listed as IC50 ranges) was 100 to 1000 nM.
Regarding `CC(=O)Nc1cc2c(cn1)C(C)Oc1cc(OC[C@@H](N)CC(C)C)ccc1-2` (stereo partly drawn) [Example 30, N-(8-(((S)-2-amino-4-methylpentyl)oxy)-5-methyl-5H-chromeno[3,4-c]pyridin-2-yl)acetamide], on GST-Xa-hAAK1 (listed as IC50 ranges), the IC50 lay in the range of 10 to 100 nM.
For the compound `CC(=O)Nc1cc2c(cn1)COc1cc(OC[C@H](N)CC(C)C)ccc1-2` [Example 40, (R)-N-(8-(2-amino-4-methylpentyloxy)-5H-chromeno[3,4-c]pyridin-2-yl)acetamide], the IC50 at GST-Xa-hAAK1 (listed as IC50 ranges) lay in the range of 1 to 10 nM.
On the same count and under the same terms, the value for `CC(C)C[C@H](N)COc1ccc2c(c1)OC(C)c1cnc(N)cc1-2` (stereo partly drawn) [Example 29, 8-(((S)-2-amino-4-methylpentyl)oxy)-5-methyl-5H-chromeno[3,4-c]pyridin-2-amine] was 10 to 100 nM.
As for `CC(C)C[C@H](N)COc1ccc2c(c1)OC1(COC1)c1cnccc1-2` [Example 19, (S)-4-methyl-1-(spiro[chromeno[3,4-c]pyridine-5,3′-oxetan]-8-yloxy)pentan-2-amine], the IC50 on GST-Xa-hAAK1 (listed as IC50 ranges) was in the range of 100 to 1000 nM.
Take `CC(C)C[C@H](N)COc1cc2c(cc1I)-c1ccncc1C(C)O2` (single isomer, unassigned) [Example 31b]: at GST-Xa-hAAK1 (listed as IC50 ranges), the 50% inhibitory concentration (IC50) lay within 1 to 10 nM.
For `CC(C)C[C@@H](N)COc1ccc2c(c1)OCc1cnccc1-2` [Example 1, (R)-1-(5H-chromeno[3,4-c]pyridin-8-yloxy)-4-methylpentan-2-amine], the IC50 on GST-Xa-hAAK1 (numeric values) worked out at 20 nM.
Turning to `Cc1nccc2c1c(=O)oc1cc(OC[C@@H](N)CC(C)C)ccc12` [Example 34, (S)-8-((2-amino-4-methylpentyl)oxy)-4-methyl-5H-chromeno[3,4-c]pyridin-5-one], on GST-Xa-hAAK1 (listed as IC50 ranges), the IC50 lay within 10 to 100 nM.
Still for that read-out and setting: the figure for `CCC1Oc2cc(OC[C@@H](N)CC(C)C)ccc2-c2ccncc21` (single isomer, unassigned) [Example 10b] is 10 to 100 nM.
Regarding `CC(C)C[C@H](N)COc1ccc2c(c1)OC(C)c1cnccc1-2` (mixture of isomers) [Example 6, (2S)-4-methyl-1-(5-methyl-5H-chromeno[3,4-c]pyridin-8-yloxy)pentan-2-amine], on GST-Xa-hAAK1 (listed as IC50 ranges), the half-maximal inhibitory concentration (IC50) fell in the range of 1 to 10 nM.
Same read-out and setting: the figure for `CC[C@H](N)COc1ccc2c(c1)OCc1cnccc1-2` [Example 4, (S)-1-(5H-chromeno[3,4-c]pyridin-8-yloxy)butan-2-amine] is 10 to 100 nM.
